Experimental data as given in ChEMBL document CHEMBL3352432, “Synthesis and biological evaluation of 2-anilino-4-substituted-7H-pyrrolopyrimidines as PDK1 inhibitors” (Bioorg Med Chem, 2014).

Each compound was assayed against T1, 3-phosphoinositide-dependent protein kinase 1 (Homo sapiens) (UniProt O15530) (assay: Inhibition of PDK1 (unknown origin) expressed in HEK293 cells using PDKtide as substrate at 10 uM after 10 mins by liquid scintillation counting in presence of [gamma-32P]ATP).
T1 sequence (whole entry): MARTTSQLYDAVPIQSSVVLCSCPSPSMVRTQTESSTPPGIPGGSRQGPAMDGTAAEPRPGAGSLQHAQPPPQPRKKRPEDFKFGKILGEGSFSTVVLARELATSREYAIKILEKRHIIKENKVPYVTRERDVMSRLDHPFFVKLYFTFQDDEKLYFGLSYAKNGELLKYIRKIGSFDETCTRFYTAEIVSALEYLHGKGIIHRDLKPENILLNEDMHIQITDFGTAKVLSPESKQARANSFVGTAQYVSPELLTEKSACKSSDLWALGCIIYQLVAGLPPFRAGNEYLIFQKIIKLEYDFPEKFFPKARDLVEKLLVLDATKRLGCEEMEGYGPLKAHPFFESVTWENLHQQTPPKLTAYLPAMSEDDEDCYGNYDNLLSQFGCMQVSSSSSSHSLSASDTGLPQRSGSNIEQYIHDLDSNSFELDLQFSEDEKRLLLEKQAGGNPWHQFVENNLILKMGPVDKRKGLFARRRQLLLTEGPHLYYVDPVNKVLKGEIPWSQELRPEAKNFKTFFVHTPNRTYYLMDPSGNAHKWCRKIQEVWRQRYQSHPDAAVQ

Point of comparison: `O=C(Nc1cccc(Nc2nc(Nc3ccccc3)c3cc[nH]c3n2)c1)N1CCCC1`, inhibition 46%. Against it:
- COc1ccc(Nc2nc(Nc3cccc(NC(=O)N4CCCC4)c3)nc3[nH]ccc23)cc1 — lower, 45%
- COc1cccc(-c2nc(Nc3cccc(NC(=O)N4CCCC4)c3)nc3[nH]ccc23)c1 — higher, 48%
- COc1ccc(-c2nc(Nc3cccc(NC(=O)N4CCCC4)c3)nc3[nH]ccc23)cc1 — higher, 70%
- O=C(Nc1cccc(Nc2nc(-c3cccc(OCc4cccnc4)c3)c3cc[nH]c3n2)c1)N1CCCC1 — the same, 46%
- COc1cc(-c2nc(Nc3cccc(NC(=O)N4CCCC4)c3)nc3[nH]ccc23)cc(OC)c1OC — lower, 36%
- COc1ccc(-c2nc(Nc3cccc(NC(=O)N4CCCC4)c3)nc3[nH]ccc23)cc1OC — higher, 65%
- COc1nc(Nc2cccc(NC(=O)N3CCCC3)c2)nc2[nH]ccc12 — higher, 90%
- O=C(Nc1cccc(Nc2nc(-c3ccccc3)c3cc[nH]c3n2)c1)N1CCCC1 — higher, 59%
- O=C(Nc1cccc(Nc2nc(-c3ccc4c(c3)OCO4)c3cc[nH]c3n2)c1)N1CCCC1 — higher, 61%
- COc1ccc(Oc2nc(Nc3cccc(NC(=O)N4CCCC4)c3)nc3[nH]ccc23)cc1 — higher, 65%

What follows are compounds tested against T2, 3-phosphoinositide-dependent protein kinase 1 (Homo sapiens, UniProt O15530) (assay: Inhibition of PDK1 (unknown origin) expressed in HEK293 cells using PDKtide as substrate after 10 mins by liquid scintillation counting in presence of [gamma-32P]ATP).
T2 sequence (O15530 whole entry): T1 sequence (whole entry)

Point of comparison: `COc1nc(Nc2cccc(NC(=O)N3CCCC3)c2)nc2[nH]ccc12`, IC50 1.2 µM. Against it:
- COc1ccc(-c2nc(Nc3cccc(NC(=O)N4CCCC4)c3)nc3[nH]ccc23)cc1 — 4.1-fold higher, 4.9 µM
